Bounds are passed on as bounds.

The target in test [1] is T1, GLUT1 (Homo sapiens, UniProt P11166).
T1 construct: Huh-7 cells which endogenously express GLUT1; endogenous in cells; host or cells: Huh-7
T1 sequence (P11166 1-492): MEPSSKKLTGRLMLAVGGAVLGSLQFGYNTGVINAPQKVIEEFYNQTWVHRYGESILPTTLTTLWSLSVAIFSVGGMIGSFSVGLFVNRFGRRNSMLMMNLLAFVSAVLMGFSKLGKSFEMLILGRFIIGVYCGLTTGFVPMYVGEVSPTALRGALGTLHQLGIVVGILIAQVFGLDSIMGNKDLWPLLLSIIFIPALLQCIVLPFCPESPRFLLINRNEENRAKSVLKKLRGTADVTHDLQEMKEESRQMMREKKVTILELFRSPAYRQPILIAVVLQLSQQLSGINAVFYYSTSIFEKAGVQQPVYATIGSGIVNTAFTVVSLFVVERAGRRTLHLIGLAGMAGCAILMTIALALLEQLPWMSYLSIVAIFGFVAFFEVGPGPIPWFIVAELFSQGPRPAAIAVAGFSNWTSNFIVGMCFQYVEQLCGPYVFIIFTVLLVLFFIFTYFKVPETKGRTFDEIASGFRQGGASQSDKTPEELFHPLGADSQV
Briefly: 3H-glucose uptake counter assay in Huh7 cells endogenously expressing GLUT1. Type of test: cell-based. The settings on record: endogenous GLUT1. Here is the method:
(§1) The compound was obtained by screening of a library containing more than 50,000 lead-like compounds and fragments. The library was tested using a functional citrate uptake assay with HEK293 cells overexpressing recombinant human INDY. The following hit confirmation was conducted in the same assay system. To confirm the activity of selected compounds on the target INDY another cell assay was conducted. In this assay system citrate uptake was measured using HepG2 cells which endogenously express INDY. Furthermore selectivity of selected compounds was tested for two other transporters in different assay systems. The first transporter was the glutamate transporter GLT-1 tested in a glutamate uptake assays using HEK293 cells overexpressing recombinant human GLT-1. The second transporter was the glucose transporter GLUT1 tested in a glucose uptake assay using Huh-7 cells which endogenously express GLUT1. Compounds were considered to be selective with an at least 5-fold higher activity for INDY than for the other two transporters.
Cells were maintained in cell medium using cell culture grade flasks (CellSTACK Corning, 500 cm2 dishes or T175 depending on cell number). The selection antibiotic and G418 (800 μg/ml) was added during cultivation but not for seeding into assay plates. For splitting, cells were washed with PBS (w/o Ca2+, Mg2+, phenol red) and detached with Trypsin/EDTA. Throughout cultivation cells were kept sub-confluent. Detached cells (50,000 cells/well) were seeded in 96-well plates (white, clear bottom from Corning #655098) and incubated over night before usage in the assay. The following media were used. For HEK293 cells expressing INDY MEM (PAA)+10% FCS+1×P/S+2 mM L-Gln; for HEK293 cells expressing GLT-1 DMEM (Gibco)+10% FCS+400 µg/ml G418; for Huh7 cells DMEM (Gibco)+10% FCS+2 mM L-Gin (+1×P/S); for HepG2 cells MEM (PAA, Cat # E15-024)+10% FCS+2 mM L-Gin+1×NEAA+1 mM Na-Pyruvat […]
Glucose uptake in Huh7 cells was measured as a counter assay. […] After 20 min incubation at RT plates were measured using TopCount system, Perkin Elmer. […]

Test [2] has as its target T2, INDY (Homo sapiens, UniProt Q86YT5). Briefly: 14C-citrate uptake in HepG2 cells endogenously expressing INDY (NaCT). It is filed as cell-based. Particulars: endogenous INDY. In a few lines:
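HepG2 cells, which express INDY endogenously, were preincubated with compound for 5 min at 37 °C in pH 6.5 Na+ citrate uptake buffer. 14C-citrate ([…]) was then added for 90 min at 37 °C. After washing and NaOH lysis, uptake was measured by scintillation counting, with 5 mM citrate as positive control.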

For test [3], the target named is T3, GLT-1 (Homo sapiens, UniProt P43004).
T3 construct: host or cells: HEK293 (virus made in GP293 packaging cells)
T3 sequence (P43004 whole entry): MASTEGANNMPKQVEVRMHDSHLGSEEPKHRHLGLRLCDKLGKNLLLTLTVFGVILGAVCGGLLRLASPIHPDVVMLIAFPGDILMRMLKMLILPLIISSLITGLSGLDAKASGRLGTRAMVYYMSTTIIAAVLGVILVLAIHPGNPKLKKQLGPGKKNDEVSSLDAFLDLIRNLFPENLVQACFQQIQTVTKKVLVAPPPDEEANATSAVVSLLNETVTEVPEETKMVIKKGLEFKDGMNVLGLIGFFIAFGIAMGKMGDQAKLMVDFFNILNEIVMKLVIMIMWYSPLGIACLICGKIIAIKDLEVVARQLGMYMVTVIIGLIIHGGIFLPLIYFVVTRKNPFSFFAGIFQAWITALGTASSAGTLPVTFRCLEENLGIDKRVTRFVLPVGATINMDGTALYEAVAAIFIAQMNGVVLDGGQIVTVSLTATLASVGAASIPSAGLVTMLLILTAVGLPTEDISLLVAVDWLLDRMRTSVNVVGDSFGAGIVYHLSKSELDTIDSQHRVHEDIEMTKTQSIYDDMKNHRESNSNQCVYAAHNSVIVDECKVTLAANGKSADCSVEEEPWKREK
The experiment in a line: 3H-glutamate uptake counter assay in HEK293 cells overexpressing human GLT-1. It is filed as cell-based. Here is the method: as §1
Cells were maintained in cell medium using cell culture grade flasks (CellSTACK Corning, 500 cm2 dishes or T175 depending on cell number). The selection antibiotic and G418 (800 μg/ml) was added during cultivation but not for seeding into assay plates. For splitting, cells were washed with PBS (w/o Ca2+, Mg2+, phenol red) and detached with Trypsin/EDTA. Throughout cultivation cells were kept sub-confluent. Detached cells (50,000 cells/well) were seeded in 96-well plates (white, clear bottom from Corning #655098) and incubated over night before usage in the assay. The following media were used. For HEK293 cells expressing INDY MEM (PAA)+10% FCS+1×P/S+2 mM L-Gln; for HEK293 cells expressing GLT-1 DMEM (Gibco)+10% FCS+400 µg/ml G418; for Huh7 cells DMEM (Gibco)+10% FCS+2 mM L-Gin (+1×P/S); for HepG2 cells MEM (PAA, Cat # E15-024)+10% FCS+2 mM L-Gin+1×NEAA+1 mM Na-Pyruvat
The following assay buffers for the particular uptake reaction were used. Citrate uptake buffer: 120 mM NaCl, 5.4 mM KCl, 0.8 mM MgSO4, 5 mM glucose, 1.8 mM CaCl2, 25 mM Hepes, 25 mM MES, pH 6.5. Glutamate uptake buffer: HBSS, 1 mM CaCl2, 1 mM MgCl2, 20 mM Hepes pH 7.4. Glucose uptake buffer: 25 mM Hepes+25 mM MES pH 7.4, 120 mM NaCl, 5.4 mM KCl, 1.8 mM CaCl2, 0.8 mM MgSO4.
As a counter assay, Glutamate uptake by the GLT-1 transporter was used. The principle of the assay is to measure the uptake of ^3H labelled glutamate into HEK cells, which overexpress human GLT-1.
The generation of a GLT-1 cell line was performed as follows: human GLT11 isoform sv1 cDNA (Origene # RC223924) was cloned into vector pFB-Neo-CMV-hGLT1 using QIAfilter Plasmid Midi Kit (Qiagen). Virus was generated in GP293 packaging cells (transfection of plasmid with Lipofectamine 2000+OptiMEM). For transfection into HEK cells GP293, supernatant containing virus was passed through a 0.45 micron sterile filter and DEAE-dextran was added at […] final concentration. The solution was used to transfect HEK293 cells at 37° C., 8.5% CO2. After 24 h selection marker G418 at 400 μg/ml was added and cultivation medium performed in DMEM 10% FBS.
The assay was performed in a 96-well format using repeated washing steps, cell lysis and addition of scintillation fluid. Assay buffer was HBSS, 1 mM CaCl2, 1 mM MgCl2, […] pH 7.4. Cells were seeded into white clear-bottom 96-well plates (50,000/well) in the presence of Poly-D-Lysine and incubated at 37° C. for 16-24 hours. Subsequently the plates were washed once with assay buffer using automated washing/LS 405 Selectors, BioTek ending with a buffer volume of 40 μl. Then 5 μl of compound solution in assay buffer was added and incubated for 20 min at 37° C. in cell incubator, HERA cell Heraeus. Afterwards 10 μl of substrate 3H-Glu (3 nM) were added and incubated for another 20 min at 37° C. in cell incubator, HERAcell. Then the plates were washed once with 200 μl cold assay buffer and 150 μl scintillation fluid was added. […]

The target in test [4] is T2, INDY. Briefly: 14C-citrate uptake in HEK293 cells overexpressing recombinant human INDY (NaCT). On the set-up: expressed in transfected cells; host or cells: HEK293. Type of test: cell-based. The gist of the method: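 HEK293 cells overexpressing human NaCT, 50,000/well, preincubated 5-30 min at 37 °C with compound in pH 6.5 Na+ buffer. 14C-citrate ([…]) uptake then ran 20-90 min at 37 °C, followed by ice-cold washes, NaOH lysis and scintillation counting. 10 mM citrate served as positive control.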

Test [5] deals with Indy. The settings on record: at 0.1 mM; cited from earlier work.

T2 sequence (Q86YT5 whole entry): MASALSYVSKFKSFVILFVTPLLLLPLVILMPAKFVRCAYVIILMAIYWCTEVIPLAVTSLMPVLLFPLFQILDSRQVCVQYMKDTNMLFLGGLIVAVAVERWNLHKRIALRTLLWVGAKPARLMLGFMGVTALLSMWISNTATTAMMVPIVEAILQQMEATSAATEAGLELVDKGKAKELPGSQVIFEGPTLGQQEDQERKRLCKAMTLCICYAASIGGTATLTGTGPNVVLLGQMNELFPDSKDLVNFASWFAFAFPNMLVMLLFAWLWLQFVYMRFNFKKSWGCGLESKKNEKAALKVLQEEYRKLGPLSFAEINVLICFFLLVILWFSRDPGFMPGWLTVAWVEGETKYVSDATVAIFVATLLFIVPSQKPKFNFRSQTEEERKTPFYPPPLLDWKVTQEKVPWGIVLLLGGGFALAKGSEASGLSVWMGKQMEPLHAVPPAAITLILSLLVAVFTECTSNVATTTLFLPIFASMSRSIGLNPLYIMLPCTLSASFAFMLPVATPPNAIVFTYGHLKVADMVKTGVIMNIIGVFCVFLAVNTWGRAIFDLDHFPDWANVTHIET

In general, IC50 refers to the concentration that gives 50% inhibition. On to `O=C(NCc1ccccc1F)C1CN(S(=O)(=O)/C=C/c2ccccc2)C1` [Example 1, N-[(2-fluorophenyl)methyl]-1-[(E)-phenylethenesulfonyl]azetidine-3-carboxamide], for which the values for the 50% inhibitory concentration (IC50) in test [1] and in test [2] were over 50 µM and 5.4 µM, respectively.

For `O=C(NCc1ccccc1F)C1CCN(S(=O)(=O)c2ccccc2)CC1` [Example 6, N-[(2-fluorophenyl)methyl]-1-(benzenesulfonyl) piperidine-4-carboxamide], the IC50 was over 50 µM in test [1], over 50 µM in test [3] and 5.7 µM in test [2].

Turning to `CC(C)(C)c1ccc(S(=O)(=O)N2CC(C(=O)NCc3ccccc3Cl)C2)cc1` [Example 49, 1-(4-tert-butylbenzenesulfonyl)-N-[(2-chlorophenyl)methyl]azetidine-3-carboxamide], the IC50 in test [4] was 6.4 µM; in test [3] it was over 20 µM; in test [2], 9 µM.

In the case of `Cc1cc(C)cc(S(=O)(=O)N2CCC(C(=O)NCc3ccccn3)CC2)c1` [Example 60, 1-(3,5-dimethylbenzenesulfonyl)-N-[(pyridin-2-yl)methyl]piperidine-4-carboxamide], the IC50 in test [4] is 1.3 µM; in test [3], over 20 µM; in test [2], 0.7 µM.

Consider `O=C(NCc1ccccn1)C1CCN(S(=O)(=O)c2ccc(Cl)cc2Cl)CC1` [Example 73, 1-(2,4-dichlorobenzenesulfonyl)-N-[(pyridin-2-yl)methyl]pipendine-4-carboxamide], for which the IC50 was 2.4 µM in test [4], over 20 µM in test [3] and 1.6 µM in test [2].

Consider `O=C(NCc1ccccc1O)C1CCN(S(=O)(=O)c2cc(Cl)cc(Cl)c2)CC1` [Example 79, 1-(3,5-dichlorobenzenesulfonyl)-N-[(2-hydroxyphenyl)methyl]pipendine-4-carboxamide], for which the IC50 in test [4] was 0.2 µM; in test [3], over 20 µM; in test [2], 0.1 µM.

In the case of `Nc1ccccc1CNC(=O)C1CCN(S(=O)(=O)c2cc(Cl)cc(Cl)c2)CC1` [Example 81, N-[(2-aminophenyl)methyl]-1-(3,5-dichlorobenzenesulfonyl)pipendine-4-carboxamide], the IC50 in test [4] is 0.4 µM; in test [3] it was over 20 µM; in test [2], 0.1 µM.

On to `O=C(NCc1ccccc1O)C1CCN(S(=O)(=O)c2ccc(C(F)(F)F)cc2)CC1` [Example 82, N-[(2-hydroxyphenyl)methyl]-1-[4-(trifluoromethyl)benzenesulfonyl]pipendine-4-carboxamide], for which the IC50 was 1.1 µM in test [4], over 20 µM in test [3] and 0.6 µM in test [2].

In the case of `[N-]=[N+]=NCc1ccccc1CNC(=O)C1CCN(S(=O)(=O)c2cc(Cl)cc(Cl)c2)CC1` [Example 92, N-([2-(azidomethyl)phenyl]methyl)-1-(3,5-dichlorobenzenesulfonyl)piperidine-4-carboxamide], the IC50 in test [4] is 1 µM; in test [3], over 20 µM; in test [2], 0.8 µM.

On to `O=C(NCc1ccccn1)C1CCN(S(=O)(=O)c2cc(Cl)cc(Br)c2)CC1` [Example 96, 1-(3-bromo-5-chlorobenzenesulfonyl)-N-[(pyridin-2-yl)methyl]piperidine-4-carboxamide], for which the IC50 in test [4] was 0.4 µM; in test [3] it was over 20 µM; in test [2] it was 0.3 µM.

On to `O=C(NCc1ccccc1)C1CCN(S(=O)(=O)c2cc(Cl)cc(Cl)c2)CC1` [Example 103, N-benzyl-1-(3,5-dichlorobenzenesulfonyl)piperidine-4-carboxamide], for which the values for the IC50 in test [4], in test [3] and in test [2] were 0.1 µM, over 20 µM and 0.1 µM, respectively.

As for `CC(C)c1ccc(S(=O)(=O)N2CCC(C(=O)NCc3ccccn3)CC2)cc1` [Example 111, 1-[4-(propan-2-yl)benzenesulfonyl]-N-[(pyridin-2-yl)methyl]piperidine-4-carboxamide], the IC50 is 2.7 µM in test [4], over 20 µM in test [3] and 5.2 µM in test [2].

As for `CC(F)c1cccc(S(=O)(=O)N2CCC(C(=O)NCc3ccccc3F)CC2)c1` (stereo not drawn) [Example 112, 1-[3-(1-fluoroethyl)benzenesulfonyl]-N-[(2-fluorophenyl)methyl]piperidine-4-carboxamide], the half-inhibitory concentration (IC50) in test [4] is 1.4 µM; in test [3], over 20 µM; in test [2], 0.9 µM.

For the compound `O=C(O)CC(O)(C(=O)O)C(O)C(=O)O` (stereo not drawn) [hydroxycitrate], in test [5], the “inhibition of Indy” value was 30-40%.

(Values after patent US20200087258A1, “INHIBITOR OF CITRATE TRANSPORTER AND THEIR USE IN THERAPY” (Eternygen GmbH, priority 2017, published 2020).)
